Data: patent US20090297469A1, “Cyanoacrylate Monomer Formulation Containing Diiodomethyl-p-tolylsulfone and 2,4,4'-Trichloro-2'-Hydroxydiphenyl Ether” (priority 2004, published 2009)
Converted amounts (≈) assume the structure as drawn. Blank lines part the entries; values can stand above or below the molecule they belong to.

Tests used:
[1] = tested on: genus Staphylococcus, Staphylococcus epidermidis, Staphylococcus aureus, methicillin-resistant Staphylococcus epidermidis, and methicillin-resistant …; details: cited from earlier work
[2] = tested on: Staphylococcus aureus 6538; assay: MIC/MBC by tube dilution procedure; type: cell-based; details: preliminary evaluation
Method: (§1) The effectiveness of the antimicrobial property of pure DIMPTS is described in terms of minimum inhibitory concentration (MIC) and minimum bactericidal concentration (MBC) in Table II (A). Minimum inhibitory concentration is the lowest concentration that prevents the development of visible growth after a period of incubation. Minimum bactericidal concentration is the lowest concentration that achieves a 1000 fold or greater reduction in the original bacterial inoculum. The minimum inhibitory concentration and minimum bactericidal concentration is evaluated using tube dilution procedure.

[3] = tested on: Streptococcus agalactiae 624; assay: MIC/MBC by tube dilution procedure; type: cell-based; details: preliminary evaluation
Method: as §1

[4] = tested on: Pseudomonas aeruginosa 9027; assay: MIC/MBC by tube dilution procedure; type: cell-based; details: preliminary evaluation
Method: as §1

Escherichia coli 8739 = assay: MIC/MBC by tube dilution procedure; type: cell-based; details: preliminary evaluation
Method: as §1

Candida albicans 10231 = assay: MIC/MBC by tube dilution procedure; type: cell-based; details: preliminary evaluation
Method: as §1

[5] = tested on: Staphylococcus epidermidis 51625; assay: MIC/MBC by tube dilution procedure; type: cell-based; details: preliminary evaluation
Method: as §1

Bacillus subtilis 902173 = assay: MIC/MBC by tube dilution procedure; type: cell-based; details: preliminary evaluation
Method: as §1

[6] = tested on: Staphylococcus aureus 33591; assay: MIC/MBC by tube dilution procedure; type: cell-based; details: preliminary evaluation
Method: as §1, with “DIMPTS” left out

[7] = tested on: Enterococcus faecium 700221; assay: MIC/MBC by tube dilution procedure; type: cell-based; details: preliminary evaluation
Method: as §1, with “DIMPTS” left out

[8] = tested on: S. aureus, E. coli, P. aeruginosa, K. pneumoniae, P. cepacia, E. cloacae, S. marcescens, S. pyogenes, E. faecalis-Vancomycin Resistant, C. albicans and B. …; details: reported for blends with acrylic hot melt adhesive polymers; cited from earlier work
[9] = aqueous; cited from earlier work

Compound: Oc1cc(Cl)ccc1Oc1ccc(Cl)cc1Cl [2,4,4′-trichloro-2′-hydroxydiphenyl ether]
Antimicrobial effect [1]: has an antimicrobial effect

MIC [2]: 100 µg/mL (≈ 237 µM) | MIC [3]: 50 µg/mL (≈ 118 µM) | MIC [4]: > 100 µg/mL | MIC (Escherichia coli 8739): 100 µg/mL (≈ 237 µM) | MIC (Candida albicans 10231): 5 µg/mL (≈ 11.8 µM) | MIC [5]: 25 µg/mL (≈ 59.2 µM) | MIC (Bacillus subtilis 902173): 50 µg/mL (≈ 118 µM) | MIC [6]: 12.5 µg/mL (≈ 29.6 µM) | MIC [7]: 50 µg/mL (≈ 118 µM)
Compound: Cc1ccc(S(=O)(=O)C(I)I)cc1 [DIMPTS, diiodomethyl-p-tolylsulfone]
MBC [2]: < 250 µg/mL | MBC [3]: 125 to 250 µg/mL (≈ 296 to 592 µM) | MBC (Escherichia coli 8739): < 250 µg/mL | MBC (Candida albicans 10231): 10 to 100 µg/mL (≈ 23.7 to 237 µM) | MBC [5]: < 100 µg/mL | MBC (Bacillus subtilis 902173): 50 to 100 µg/mL (≈ 118 to 237 µM) | MBC [6]: < 250 µg/mL | Zones of inhibition against several organisms [8]: zones of inhibition

Compound: [O-][Cl+3]([O-])([O-])O [perchloric acid]
pKa [9]: −5.0
